Measurements: article PMC11865921, “Effect of mono-guanidine-like derivatives on platelet aggregation and tumour cell induced platelet aggregation” (RSC Medicinal Chemistry, 2025)
Read-outs that look alike come from different tables or passages of the source.

Legend:
sigma σ1 receptor = target: T1, sigma σ1 receptor; assay: PDSP radioligand competition binding
T1 construct: gene SIGMAR1; PDSP has often used guinea pig or rat tissue for sigma1
From the text: PDSP radioligand competition binding on sigma σ1 receptor

sigma σ2 receptor = target: T2, sigma σ2 receptor; assay: PDSP radioligand competition binding; conditions: read-out: [drawing 1]
T2 construct: gene TMEM97; PDSP has often used rat PC12 cells or guinea pig tissue for sigma2
From the text: PDSP radioligand competition binding on sigma σ2 receptor

Ki (sigma σ1 receptor; read-out: [drawing 1]) [nM]	Ki (sigma σ2 receptor) [nM]	SMILES	Ki (sigma σ1 receptor; read-out: [drawing 2]) [nM]
–	–	c1cc2c(nc1NC1=NCCN1)CCCC2 [compound 2]	179
266	547	N=C(N)Nc1ccc2c(n1)CCCC2 [compound 1]	–
